The text below walks through data of ChEMBL document CHEMBL2390819, “A convenient synthesis of GDP-D-rhamnose: the donor substrate for D-rhamnosyltransferase WbpZ from Pseudomonas aeruginosa PAO1” (Bioorg Med Chem Lett, 2013).

For this test, the target named is T1, D-rhamnosyltransferase WbpZ (Pseudomonas aeruginosa (strain ATCC 15692 / PAO1 / 1C / PRS 101 / LMG12228)) (UniProt Q9HTC0).
T1 sequence (whole entry): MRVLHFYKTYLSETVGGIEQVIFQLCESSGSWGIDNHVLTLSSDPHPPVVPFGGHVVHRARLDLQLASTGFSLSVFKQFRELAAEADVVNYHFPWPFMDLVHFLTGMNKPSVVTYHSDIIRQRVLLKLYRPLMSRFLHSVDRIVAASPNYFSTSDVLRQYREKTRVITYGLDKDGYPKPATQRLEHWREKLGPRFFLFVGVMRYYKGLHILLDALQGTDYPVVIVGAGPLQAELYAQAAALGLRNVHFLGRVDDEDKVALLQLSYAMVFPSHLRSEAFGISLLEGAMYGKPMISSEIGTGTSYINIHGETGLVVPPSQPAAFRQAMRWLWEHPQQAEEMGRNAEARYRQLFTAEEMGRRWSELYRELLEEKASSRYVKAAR
As to the kind of experiment: Activity at Pseudomonas aeruginosa PAO1 his-tagged D-rhamnosyltransferase WbpZ expressed in Escherichia coli BL21 at 0.25 mM after 1 hr by MALDI-MS analysis.

Calls of active or inactive are those of the source. The calls are words filed in the database; no cut-off is given here.

On to `C[C@H]1O[C@H](OP(=O)(O)OP(=O)(O)OC[C@H]2O[C@@H](n3cnc4c(=O)[nH]c(N)nc43)[C@H](O)[C@@H]2O)[C@@H](O)[C@@H](O)[C@@H]1O`, for which the outcome was Active.
